Data reported in patent US20210255193A1, “LYSINE REACTIVE PROBES AND USES THEREOF” (The Scripps Research Institute, priority 2017, published 2021).

Assays:
[1] = molecular target: T1, EIF3G Eukaryotic translation initiation factor 3 subunit (Homo sapiens, UniProt O75821); assay: competitive isoTOP-ABPP; assay type: binding; details: for R value (DMSO/fragment) for probe 1 labeling: O75821_K280; for isoTOP-ABPP ratio, lysine O75821_K280: 50 uM_231_sol_in vitro
T1 construct: isoTOP-ABPP experiments performed in cell lysates (in vitro); endogenous in cells; host or cells: MDA-MB-231 soluble lysate
Summary of the method: (§1)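 Cell lysate treated in vitro with fragments (50 μM activated esters, 100 μM guanidinylating agents) or DMSO, labelled 1 h at ambient temperature with 0.1 mM STP-alkyne, CuAAC-tagged with light/heavy TEV tags, analysed by MS. R = DMSO/compound MS1 peak-area ratio; lysines with R≥4 called liganded.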

[2] = system: lysines in the human breast cancer cell MDA-MB-231 proteome; assay: competitive isoTOP-ABPP, proteome-wide fragment reactivity; assay type: binding; details: for proteome-wide reactivity: fragments 50-100 μM; for lysines reacted that showed negligible cross-reactivity with activated esters: human cell proteomes
Description: In vitro covalent fragment treatment for isoTOP-ABPP. All compounds were made up as solutions in DMSO (100×) and were used at a final concentration of 50 μM for activated esters and 100 μM for guanidinylating agents. For each profiling sample, 0.5 ml of lysate was treated with 5 μl of the 100× compound stock solution or 5 μl of DMSO. Samples were treated with activated esters for
STP-alkyne labeling and click chemistry. For concentration-dependent reactivity measurements by isoTOP-ABPP, 0.5 ml proteome aliquots were treated at ambient temperature with 1 mM STP-alkyne 1 (5 μl of 100 mM stock in DMSO) and 0.1 mM STP alkyne 1 (5 μl of 10 mM stock in DMSO), respectively. For competitive isoTOP-ABPP, after in vitro fragment treatment (detailed above), the samples were labeled for 1 h at ambient temperature with 0.1 mM STP-alkyne 1 (5 μl of 10 mM stock in DMSO). Samples were conjugated by copper-mediated azide-alkyne cycloaddition (CuAAC) to either the light (1 mM STP-alkyne or fragment treated) or heavy (0.1 mM STP-alkyne or DMSO treated) TEV tags (10 μl of 5 mM stocks in DMSO, final concentration=100 μM) using tris(2-carboxyethyl)phosphine hydrochloride
R value calculation and processing. The ratios of light and heavy MS1 peaks for each unique peptide were quantified with a CIMAGE software using default parameters (3 MS1 acquisitions per peak and signal to noise threshold set to 2.5). For reactivity measurements by isoTOP-ABPP, the R value was calculated from the ratio of MS1 peak areas, comparing the 1 mM STP alkyne sample (light TEV tag) with the 0.1 mM STP alkyne sample (heavy TEV tag). For competitive isoTOP-ABPP, the R value was calculated from the ratio of MS1 peak areas, comparing the DMSO treated sample (heavy TEV tag) with the compound treated sample (light TEV tag). […] Ratios for unique peptide entries are calculated for each experiment; overlapping peptides with the same modified lysine (for example, different charge states, MudPIT chromatographic steps or tryptic termini) are grouped together and the median ratio is reported as the final ratio (R). The peptide ratios reported by CIMAGE were further filtered to ensure the removal or correction of low-quality ratios in each individual data set. The quality filters applied were the following: removal of half tryptic peptides; for ratios with high standard deviations from the median (90% of the median or above) the lowest ratio was taken instead of the median; removal of peptides with R=20 and only a single MS2 event triggered during the elution of the parent ion; manual annotation of all the peptides with ratios of 20, removing any peptides with low quality elution profiles that remained after the previous curation steps (only done for competitive isoTOP-ABPP).
Cross-data processing for fragment screening. For compound treated samples, biological replicates of the same condition were averaged, if the standard deviation was below 60% of the mean; otherwise, for lysines with at least one R value <4 for a particular compound, the lowest value of the ratio set was taken. For lysines, where all R values for a particular compound were ≥4, the average was reported. For peptides containing several possible modified lysines, the lysine with the highest number of quantification events was used for analysis and the remaining, redundant peptides were reported as alternative modification sites. Peptides included in the aggregate dataset (those used for further bioinformatics and statistical analyses) were required to have been quantified in 2 experiments for competitive isoTOP-ABPP. Lysines were categorized as liganded, if they had at least one ratio R≥4 (hit fragments). For liganded lysines with R=20 for all liganding events, lysines were required to have been quantified with R=20 in two separate experiments and were further required to have been quantified with R<20 in one additional experiment. […]

[3] = molecular target: T2, TARDBP TAR DNA-binding protein 43 (Homo sapiens, UniProt Q13148); assay: competitive isoTOP-ABPP; details: for R value (DMSO/fragment) for probe 1 labeling: Q13148_K114; for isoTOP-ABPP ratio (R) at liganded lysine Q13148_K114: sol, 231
T2 construct: isoTOP-ABPP experiments performed in cell lysates (in vitro); endogenous in cells; host or cells: soluble proteome of human cancer cell lines (MDA-MB-231, Ramos, Jurkat)
Summary of the method: as §1

[4] = molecular target: T3, PTRF Polymerase I and transcript release factor (Homo sapiens, UniProt Q6NZI2); assay: competitive isoTOP-ABPP; assay type: binding; details: for isoTOP-ABPP ratio (R) at liganded lysine Q6NZI2_K326: sol, 231
T3 construct: isoTOP-ABPP experiments performed in cell lysates (in vitro); endogenous in cells; host or cells: soluble proteome of human cancer cell lines (MDA-MB-231; Ramos and Jurkat also prepared)
T3 sequence (Q6NZI2 1-390): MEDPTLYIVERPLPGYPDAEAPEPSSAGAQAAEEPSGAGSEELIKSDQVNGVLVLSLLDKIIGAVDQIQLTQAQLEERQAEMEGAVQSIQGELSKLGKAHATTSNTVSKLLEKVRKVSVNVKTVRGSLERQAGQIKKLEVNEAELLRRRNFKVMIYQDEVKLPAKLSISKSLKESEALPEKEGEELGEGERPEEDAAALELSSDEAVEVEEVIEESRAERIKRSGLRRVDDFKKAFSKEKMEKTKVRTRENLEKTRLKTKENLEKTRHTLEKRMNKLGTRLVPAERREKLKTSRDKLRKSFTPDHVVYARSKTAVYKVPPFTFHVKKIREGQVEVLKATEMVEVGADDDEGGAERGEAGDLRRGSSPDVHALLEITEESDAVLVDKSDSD
Summary of the method: as §1

[5] = molecular target: T4, PSMC6 26S protease regulatory subunit 10B (Homo sapiens, UniProt P62333); assay: competitive isoTOP-ABPP; assay type: binding; details: for isoTOP-ABPP reactivity ratio at lysine P62333_K72 / isoTOP-ABPP ratio (R) at liganded lysine P62333_K72: 50 uM, in vitro; for isoTOP-ABPP reactivity ratio at lysine P62333_K72: 231 sol; for isoTOP-ABPP ratio (R) at liganded lysine P62333_K72: sol, 231
T4 construct: isoTOP-ABPP experiments performed in cell lysates (in vitro); endogenous in cells; host or cells: soluble proteome of human cancer cell lines (MDA-MB-231, Ramos, Jurkat)
Summary of the method: as §1

O=C(Oc1c(F)c(F)c(F)c(F)c1F)C(c1ccccc1)c1ccccc1 [fragment 20, Pentafluorophenyl 2,2-diphenylacetate]
R value (DMSO/fragment) for probe 1 labeling ([1]; 50 uM, 231 sol, in vitro): 0.9
proteome-wide reactivity [2]: limited reactivity across the proteome

O=C(Oc1c(F)c(F)c(F)c(F)c1F)c1cc(C(F)(F)F)cc(C(F)(F)F)c1 [fragment 21, Pentafluorophenyl 3,5-bis(trifluoromethyl)benzoate]
R value (DMSO/fragment) for probe 1 labeling ([3]; 50 uM, 231 sol, in vitro): 0.9
R value (DMSO/fragment) for probe 1 labeling ([1]; 50 uM, 231 sol, in vitro): 1.7
proteome-wide reactivity [2]: low proteome-wide reactivity

Cn1cc(CC(=O)Oc2c(F)c(F)c(F)c(F)c2F)c2ccccc21 [fragment 22, Pentafluorophenyl 2-(1-methyl-1H-indol-3-yl)acetate]
R value (DMSO/fragment) for probe 1 labeling ([3]; 50 uM, 231 sol, in vitro): 0.8
R value (DMSO/fragment) for probe 1 labeling ([1]; 50 uM, 231 sol, in vitro): 0.6
R value (DMSO/fragment) for probe 1 labeling ([4]; Q6NZI2_K326, 50 uM, 231 sol, in vitro): 20.0

O=C(Oc1c(F)c(F)c(F)c(F)c1F)C1CCN(C(=O)OCc2ccccc2)CC1 [fragment 24, 1-Benzyl 4-(pentafluorophenyl) piperidine-1,4-dicarboxylate]
isoTOP-ABPP reactivity ratio at lysine Q13148_K114 ([3]; 50 uM, 231 sol, in vitro): 1.0

CCn1cc(C(=O)Oc2c(F)c(F)c(F)c(F)c2F)c(=O)c2ccc(C)nc21 [fragment 28, Pentafluorophenyl 1-ethyl-7-methyl-4-oxo-1,4-dihydro-1,8-naphthyridine-3-carboxylate]
isoTOP-ABPP reactivity ratio at lysine P62333_K72 [5]: 20.0

O=C(Oc1ccc([N+](=O)[O-])cc1[N+](=O)[O-])C(c1ccccc1)c1ccccc1 [fragment 30, 2,4-Dinitrophenyl 2,2-diphenylacetate]
isoTOP-ABPP reactivity ratio at lysine O75821_K280 ([1]; 50 uM, 231 sol, in vitro): 1.0
proteome-wide reactivity [2]: much greater proteome-wide reactivity

Cn1cc(CC(=O)Oc2ccc([N+](=O)[O-])cc2[N+](=O)[O-])c2ccccc21 [fragment 32, 2,4-Dinitrophenyl 2-(1-methyl-1H-indol-3-yl)acetate]
isoTOP-ABPP reactivity ratio at lysine P62333_K72 [5]: 1.4

O=C(Oc1ccc([N+](=O)[O-])cc1[N+](=O)[O-])c1ccc2ccccc2n1 [fragment 35, 2,4-Dinitrophenyl quinoline-2-carboxylate]
isoTOP-ABPP ratio (R) at liganded lysine O75821_K280 ([1]; 50 uM, in vitro, sol, 231): 1.0

O=C(CCc1coc2cc(F)ccc2c1=O)Oc1ccc([N+](=O)[O-])cc1[N+](=O)[O-] [fragment 36, 2,4-Dinitrophenyl 3-(7-fluoro-4-oxo-4H-chromen-3-yl)propanoate]
isoTOP-ABPP ratio (R) at liganded lysine Q13148_K114 ([3]; 50 uM, in vitro): 1.2

O=C(Oc1ccc([N+](=O)[O-])cc1[N+](=O)[O-])c1ccc(-c2ccccc2)cc1 [fragment 37, 2,4-Dinitrophenyl [1,1′-biphenyl]-4-carboxylate]
isoTOP-ABPP ratio (R) at liganded lysine Q13148_K114 ([3]; 50 uM, in vitro): 1.3
isoTOP-ABPP ratio (R) at liganded lysine Q6NZI2_K326 ([4]; 50 uM, in vitro): 20.0
isoTOP-ABPP ratio (R) at liganded lysine P62333_K72 [5]: 0.9

O=C(Oc1ccc([N+](=O)[O-])cc1[N+](=O)[O-])c1ccc(Oc2ccccc2)cc1 [fragment 39, 2,4-Dinitrophenyl 4-phenoxybenzoate]
isoTOP-ABPP ratio (R) at liganded lysine Q13148_K114 ([3]; 50 uM, in vitro): 0.9
isoTOP-ABPP ratio (R) at liganded lysine Q6NZI2_K326 ([4]; 50 uM, in vitro): 0.8
isoTOP-ABPP ratio (R) at liganded lysine P62333_K72 [5]: 1.1

O=C(Oc1ccc([N+](=O)[O-])cc1[N+](=O)[O-])c1ccccc1Nc1cccc(C(F)(F)F)c1 [fragment 40, 2,4-Dinitrophenyl 2-((3-(trifluoromethyl)phenyl)amino)benzoate]
isoTOP-ABPP ratio (R) at liganded lysine Q6NZI2_K326 ([4]; 50 uM, in vitro): 20.0

CC(C)(C)OC(=O)NCCCC(=O)Oc1ccc([N+](=O)[O-])cc1[N+](=O)[O-] [fragment 41, 2,4-Dinitrophenyl 4-((tert-butoxycarbonyl)amino)butanoate]
isoTOP-ABPP ratio (R) at liganded lysine P62333_K72 [5]: 1.2

CC(=O)Oc1ccc([N+](=O)[O-])cc1[N+](=O)[O-] [fragment 43, 2,4-Dinitrophenyl acetate]
isoTOP-ABPP ratio (R) at liganded lysine P62333_K72 [5]: 1.9

N#Cc1ccc(C(=O)Oc2ccc([N+](=O)[O-])cc2[N+](=O)[O-])cc1 [fragment 44, 2,4-Dinitrophenyl 4-cyanobenzoate]
isoTOP-ABPP ratio, lysine Q13148_K114 ([3]; 50 uM_231_sol_in vitro): 20.0
isoTOP-ABPP ratio, lysine O75821_K280 [1]: 0.9

O=C(CCc1ccc2c(c1)OCO2)Oc1ccc([N+](=O)[O-])cc1[N+](=O)[O-] [fragment 45, 2,4-Dinitrophenyl 3-(benzo[d][1,3]dioxol-5-yl)propanoate]
isoTOP-ABPP ratio, lysine Q13148_K114 ([3]; 50 uM_231_sol_in vitro): 20.0
isoTOP-ABPP ratio, lysine O75821_K280 [1]: 0.9
isoTOP-ABPP ratio, lysine Q6NZI2_K326 ([4]; 50 uM_231_sol_in vitro): 0.9

O=C(ON1C(=O)CCC1=O)c1cc(C(F)(F)F)cc(C(F)(F)F)c1 [fragment 46, 3,5-Bis(trifluoromethyl)benzoic acid NHS ester]
isoTOP-ABPP ratio, lysine O75821_K280 [1]: 0.8
isoTOP-ABPP ratio, lysine P62333_K72 ([5]; 50 uM_231_sol_in vitro): 0.9

COC(=O)NC(=NC(=O)OCC1c2ccccc2-c2ccccc21)n1cccn1 [fragment 49, N-Methoxycarbonyl-N′-9-fluorenylmethoxycarbonyl-pyrazole-1-carboxamidine]
isoTOP-ABPP ratio, lysine Q13148_K114 ([3]; 100 uM_231_sol_in vitro): 20.0
lysines reacted that showed negligible cross-reactivity with activated esters [2]: 15

CC(C)(C)OC(=O)N=C(NC(=O)OC(C)(C)C)n1cccn1 [fragment 50, reference compound]
isoTOP-ABPP ratio, lysine Q13148_K114 ([3]; 100 uM_231_sol_in vitro): 1.2
isoTOP-ABPP ratio, lysine P62333_K72 ([5]; 100 uM_231_sol_in vitro): 1.3
lysines reacted that showed negligible cross-reactivity with activated esters [2]: 15

NC(=O)c1cc(C(F)(F)F)cc(C(F)(F)F)c1 [fragment 51, reference compound]
lysine reactivity ([2]; competition with probe 1 (100 μM)): No lysine reactivity was observed
